Test results taken from PMC5218480 (PLoS ONE, 2017).

System: MV-4-11 cells
Assay: Gene expression microarray analysis (Affymetrix PrimeView) and GSEA
Assay type: cell-based, human
Design: RFU PODN (11730768_x_at) / Fold change /veh PODN (11730768_x_at) / RFU LINC00158 (11744669_a_at) / Fold change /veh LINC00158 (11744669_a_at) / RFU DUSP10 (11751237_a_at) / Fold change /veh DUSP10 (11751237_a_at) / RFU ID3 (11757404_x_at) / Fold change /veh ID3 (11757404_x_at) / RFU PLEKHG5 (11737974_s_at) / Fold change /veh PLEKHG5 (11737974_s_at) / RFU LRRC4B (11730491_at) / Fold change /veh LRRC4B (11730491_at) / RFU GIMAP4 (11747438_a_at) / Fold change /veh GIMAP4 (11747438_a_at) / RFU KRT8 (11758183_x_at) / Fold change /veh KRT8 (11758183_x_at) / RFU CNN1 (11734310_a_at) / Fold change /veh CNN1 (11734310_a_at) / RFU VPS37D (11726825_at) / Fold change /veh VPS37D (11726825_at) / RFU C10orf10 (11716522_x_at) / Fold change /veh C10orf10 (11716522_x_at) / RFU KIR2DL2 /// KIR2DL4 /// KIR2DL5A /// KIR2DL5B /// KIR2DS1 /// KIR2DS2 /// KIR2DS3 /// KIR2DS4 /// KIR3DL3 /// KIR3DL3 /// KIR3DS1 (11738374_at) / Fold change /veh KIR2DL2 /// KIR2DL4 /// KIR2DL5A /// KIR2DL5B /// KIR2DS1 /// KIR2DS2 /// KIR2DS3 /// KIR2DS4 /// KIR3DL3 /// KIR3DL3 /// KIR3DS1 (11738374_at) / RFU C1QL1 (11718748_at) / Fold change /veh C1QL1 (11718748_at) / RFU TMPRSS4 (11747572_a_at) / Fold change /veh TMPRSS4 (11747572_a_at) / RFU HAMP (11756126_x_at) / Fold change /veh HAMP (11756126_x_at) / RFU RNFT2 (11725882_a_at) / Fold change /veh RNFT2 (11725882_a_at) / RFU NR4A2 (11747474_a_at) / Fold change /veh NR4A2 (11747474_a_at) / RFU ABCC12 (11746883_a_at) / Fold change /veh ABCC12 (11746883_a_at) / RFU TMEM136 (11760407_x_at) / Fold change /veh TMEM136 (11760407_x_at) / RFU CLDN22 /// WWC2 (11732394_at) / Fold change /veh CLDN22 /// WWC2 (11732394_at) / RFU HLA-DPB1 (11760878_x_at) / Fold change /veh HLA-DPB1 (11760878_x_at) / RFU SPINT1 (11716480_a_at) / Fold change /veh SPINT1 (11716480_a_at) / RFU GAP43 (11754022_s_at) / Fold change /veh GAP43 (11754022_s_at) / RFU A4GNT (11735810_at) / Fold change /veh A4GNT (11735810_at) / RFU PRB3 (11715151_x_at) / Fold change /veh PRB3 (11715151_x_at) / RFU TUBB4B (11761932_at) / Fold change /veh TUBB4B (11761932_at) / RFU CAPN14 (11732068_a_at) / Fold change /veh CAPN14 (11732068_a_at) / RFU TMCC2 (11721928_a_at) / Fold change /veh TMCC2 (11721928_a_at) / RFU IRGQ (11745062_a_at) / Fold change /veh IRGQ (11745062_a_at) / RFU FAM174B (11720279_a_at) / Fold change /veh FAM174B (11720279_a_at) / RFU TMPRSS4 (11748680_a_at) / Fold change /veh TMPRSS4 (11748680_a_at) / RFU FAM212B (11763350_a_at) / Fold change /veh FAM212B (11763350_a_at) / RFU PLEKHG5 (11743358_a_at) / Fold change /veh PLEKHG5 (11743358_a_at) / RFU ZSCAN30 (11745921_a_at) / Fold change /veh ZSCAN30 (11745921_a_at) / RFU CMKLR1 (11741424_a_at) / Fold change /veh CMKLR1 (11741424_a_at) / RFU LOC101060620 /// MAPK8IP1 (11723275_at) / Fold change /veh LOC101060620 /// MAPK8IP1 (11723275_at) / RFU SPTSSB (11747773_x_at) / Fold change /veh SPTSSB (11747773_x_at) / RFU PRSS12 (11739890_at) / Fold change /veh PRSS12 (11739890_at) / RFU BIN1 (11741810_x_at) / Fold change /veh BIN1 (11741810_x_at) / RFU WNT11 (11732464_a_at) / Fold change /veh WNT11 (11732464_a_at) / RFU C10orf10 (11716521_a_at) / Fold change /veh C10orf10 (11716521_a_at) / RFU C5orf56 (11738089_at) / Fold change /veh C5orf56 (11738089_at) / RFU CYB561 (11721691_x_at) / Fold change /veh CYB561 (11721691_x_at) / RFU ANKRD19P (11752326_a_at) / Fold change /veh ANKRD19P (11752326_a_at) / RFU OR2T12 /// OR2T33 /// OR2T8 (11738714_s_at) / Fold change /veh OR2T12 /// OR2T33 /// OR2T8 (11738714_s_at) / RFU VCAN (11748164_a_at) / Fold change /veh VCAN (11748164_a_at) / RFU JSRP1 (11732532_at) / Fold change /veh JSRP1 (11732532_at) / RFU KRTAP10-11 (11738290_x_at) / Fold change /veh KRTAP10-11 (11738290_x_at) / RFU MYO3A (11730013_a_at) / Fold change /veh MYO3A (11730013_a_at) / RFU EBF3 (11725865_a_at) / Fold change /veh EBF3 (11725865_a_at) / RFU CAMK2N1 (11719241_x_at) / Fold change /veh CAMK2N1 (11719241_x_at) / RFU C5orf56 (11738088_a_at) / Fold change /veh C5orf56 (11738088_a_at) / RFU OLFML3 (11715873_a_at) / Fold change /veh OLFML3 (11715873_a_at) / RFU LOC100653217 /// NTM (11731650_a_at) / Fold change /veh LOC100653217 /// NTM (11731650_a_at) / RFU MAPK11 (11762145_a_at) / Fold change /veh MAPK11 (11762145_a_at) / RFU FIZ1 (11724087_x_at) / Fold change /veh FIZ1 (11724087_x_at) / RFU OASL (11726364_x_at) / Fold change /veh OASL (11726364_x_at) / RFU SOX15 (11748057_x_at) / Fold change /veh SOX15 (11748057_x_at) / RFU CD79A (11719716_a_at) / Fold change /veh CD79A (11719716_a_at) / RFU HIST1H1D (11736915_at) / Fold change /veh HIST1H1D (11736915_at) / RFU CASKIN2 (11723855_a_at) / Fold change /veh CASKIN2 (11723855_a_at) / RFU LOC730098 (11760151_x_at) / Fold change /veh LOC730098 (11760151_x_at) / RFU OR4N2 (11742367_at) / Fold change /veh OR4N2 (11742367_at) / RFU PRRT2 (11749266_a_at) / Fold change /veh PRRT2 (11749266_a_at) / RFU SNX32 (11753110_a_at) / Fold change /veh SNX32 (11753110_a_at) / RFU CDHR5 (11726645_a_at) / Fold change /veh CDHR5 (11726645_a_at) / RFU RCAN1 (11760418_a_at) / Fold change /veh RCAN1 (11760418_a_at) / RFU FAM167A (11723789_a_at) / Fold change /veh FAM167A (11723789_a_at) / RFU FAM26E (11764081_at) / Fold change /veh FAM26E (11764081_at) / RFU ISYNA1 (11749810_s_at) / Fold change /veh ISYNA1 (11749810_s_at) / RFU ACY1 (11761880_at) / Fold change /veh ACY1 (11761880_at) / RFU 11764098_at / Fold change /veh 11764098_at / RFU SAMD14 (11745864_x_at) / Fold change /veh SAMD14 (11745864_x_at) / RFU NPB (11741838_a_at) / Fold change /veh NPB (11741838_a_at) / RFU TMPRSS6 (11731388_a_at) / Fold change /veh TMPRSS6 (11731388_a_at) / RFU KRTAP10-2 (11738614_at) / Fold change /veh KRTAP10-2 (11738614_at) / RFU ARHGAP8 /// PRR5-ARHGAP8 (11727945_x_at) / Fold change /veh ARHGAP8 /// PRR5-ARHGAP8 (11727945_x_at) / RFU KRTAP5-7 /// NADSYN1 (11734609_at) / Fold change /veh KRTAP5-7 /// NADSYN1 (11734609_at) / RFU RASL12 (11751679_a_at) / Fold change /veh RASL12 (11751679_a_at) / RFU CDKN2B (11736163_a_at) / Fold change /veh CDKN2B (11736163_a_at) / RFU PRF1 (11729649_at) / Fold change /veh PRF1 (11729649_at) / RFU, ZNF638 /// ZNF638-IT1 / Fold change vs veh, ZNF638 /// ZNF638-IT1 / RFU, PANK3 / Fold change vs veh, PANK3 / RFU, SH3YL1 / Fold change vs veh, SH3YL1 / RFU, ZEB2 / Fold change vs veh, ZEB2 / RFU, NRIP1 / Fold change vs veh, NRIP1 / RFU, PTTG1IP / Fold change vs veh, PTTG1IP / RFU, CAPN2 / Fold change vs veh, CAPN2 / RFU, MED14 / Fold change vs veh, MED14 / RFU, SNORA58 / Fold change vs veh, SNORA58 / RFU, C1orf63 / Fold change vs veh, C1orf63 / RFU, LRRFIP1 / Fold change vs veh, LRRFIP1 / RFU, NDUFAF7 / Fold change vs veh, NDUFAF7 / RFU, SLC12A2 / Fold change vs veh, SLC12A2 / RFU, IBTK / Fold change vs veh, IBTK / RFU, ESF1 / Fold change vs veh, ESF1 / Fold change vs veh, TMEM50B / RFU, TAOK1 / Fold change vs veh, TAOK1 / RFU, ACBD3 / Fold change vs veh, ACBD3 / RFU, TMA16 / Fold change vs veh, TMA16 / RFU, RWDD3 / Fold change vs veh, RWDD3 / RFU, BCAT1 / Fold change vs veh, BCAT1 / RFU, EDEM3 / Fold change vs veh, EDEM3 / RFU, TMEM33 / Fold change vs veh, TMEM33 / RFU, WDR75 / Fold change vs veh, WDR75 / RFU, AHCTF1 / Fold change vs veh, AHCTF1 / RFU, TFRC / Fold change vs veh, TFRC / RFU, ZDHHC17 / Fold change vs veh, ZDHHC17 / RFU, NOM1 / Fold change vs veh, NOM1 / RFU, ARL8B / Fold change vs veh, ARL8B / RFU, ZBTB11 / Fold change vs veh, ZBTB11 / RFU, TAMM41 / Fold change vs veh, TAMM41 / RFU, KIAA1704 /// LOC100996395 / Fold change vs veh, KIAA1704 /// LOC100996395 / RFU, ING1 / Fold change vs veh, ING1 / RFU, TRMT61B / Fold change vs veh, TRMT61B / RFU, FUBP3 / Fold change vs veh, FUBP3 / RFU, TP53 / Fold change vs veh, TP53 / RFU, TNKS2 / Fold change vs veh, TNKS2 / RFU, ZFP14 / Fold change vs veh, ZFP14 / RFU, ACTR2 / Fold change vs veh, ACTR2 / RFU, PPP3R1 / Fold change vs veh, PPP3R1 / RFU, PIK3R1 / Fold change vs veh, PIK3R1 / RFU, HNRNPA1 / Fold change vs veh, HNRNPA1 / RFU, RNF170 / Fold change vs veh, RNF170 / RFU, ZNF28 / Fold change vs veh, ZNF28 / RFU, RNGTT / Fold change vs veh, RNGTT / RFU, OGT / Fold change vs veh, OGT / RFU, BRD1 / Fold change vs veh, BRD1 / RFU, MARS / Fold change vs veh, MARS / RFU, ZNF655 / Fold change vs veh, ZNF655 / RFU, FAHD1 / Fold change vs veh, FAHD1 / RFU, BDP1 / Fold change vs veh, BDP1 / RFU, LRRCC1 / Fold change vs veh, LRRCC1 / RFU, ARID1A / Fold change vs veh, ARID1A / RFU, ZNF146 / Fold change vs veh, ZNF146 / RFU, ZNF330 / Fold change vs veh, ZNF330 / RFU, GPN3 / Fold change vs veh, GPN3 / RFU, C9orf123 / Fold change vs veh, C9orf123 / RFU, N4BP2L2 / Fold change vs veh, N4BP2L2 / RFU, ARFIP1 / Fold change vs veh, ARFIP1 / RFU, FAM179B / Fold change vs veh, FAM179B / RFU, BCL10 / Fold change vs veh, BCL10 / RFU, UHRF1BP1L / Fold change vs veh, UHRF1BP1L / RFU, BET1 / Fold change vs veh, BET1 / RFU, CNOT2 / Fold change vs veh, CNOT2 / RFU, ZNF268 / Fold change vs veh, ZNF268 / Fold change vs veh, ZNF507 / RFU, DGCR2 / Fold change vs veh, DGCR2 / RFU, WDSUB1 / Fold change vs veh, WDSUB1 / Fold change vs veh, HSP90B1 /// MIR3652 / RFU, ADSS / Fold change vs veh, ADSS / RFU, GK / Fold change vs veh, GK / RFU, ZNF148 / Fold change vs veh, ZNF148 / RFU, TAF9 / Fold change vs veh, TAF9 / RFU, SLC1A5 / Fold change vs veh, SLC1A5 / RFU, SLMO2 / Fold change vs veh, SLMO2 / RFU, ABCC4 / Fold change vs veh, ABCC4 / RFU, LOC101060439 /// RAP1B / Fold change vs veh, LOC101060439 /// RAP1B / RFU, RFX7 / Fold change vs veh, RFX7 / RFU, GTPBP10 / Fold change vs veh, GTPBP10 / RFU, CNEP1R1 / Fold change vs veh, CNEP1R1 / RFU, BIVM-ERCC5 /// ERCC5 / Fold change vs veh, BIVM-ERCC5 /// ERCC5 / RFU, ILF3 / Fold change vs veh, ILF3 / RFU 11762660_at / Fold change /veh 11762660_at / RFU VCAN (11757783_s_at) / Fold change /veh VCAN (11757783_s_at) / RFU DDX43 (11728927_at) / Fold change /veh DDX43 (11728927_at) / RFU KRT8 (11758188_x_at) / Fold change /veh KRT8 (11758188_x_at) / RFU NKD1 (11759106_at) / Fold change /veh NKD1 (11759106_at) / RFU SRD5A1 (11742802_a_at) / Fold change /veh SRD5A1 (11742802_a_at) / RFU TPSAB1 /// TPSB2 (11721975_s_at) / Fold change /veh TPSAB1 /// TPSB2 (11721975_s_at) / RFU GSTM3 (11746129_a_at) / Fold change /veh GSTM3 (11746129_a_at) / RFU IL23R (11737362_x_at) / Fold change /veh IL23R (11737362_x_at) / RFU TMEM51 (11727254_a_at) / Fold change /veh TMEM51 (11727254_a_at) / RFU PIWIL2 (11732686_x_at) / Fold change /veh PIWIL2 (11732686_x_at) / RFU ORM1 (11744905_x_at) / Fold change /veh ORM1 (11744905_x_at) / RFU CCDC152 (11743942_at) / Fold change /veh CCDC152 (11743942_at) / RFU ECM1 (11717891_a_at) / Fold change /veh ECM1 (11717891_a_at) / RFU IL23R (11748794_a_at) / Fold change /veh IL23R (11748794_a_at) / RFU TNFAIP8L3 (11732012_x_at) / Fold change /veh TNFAIP8L3 (11732012_x_at) / RFU MBOAT4 (11741988_at) / Fold change /veh MBOAT4 (11741988_at) / RFU 11764193_at / Fold change /veh 11764193_at / RFU TMEM53 (11763286_at) / Fold change /veh TMEM53 (11763286_at) / RFU MAGEB2 (11727129_at) / Fold change /veh MAGEB2 (11727129_at) / RFU TMEM200A (11744735_a_at) / Fold change /veh TMEM200A (11744735_a_at) / RFU CCDC152 (11751479_a_at) / Fold change /veh CCDC152 (11751479_a_at) / RFU FAM211A (11726209_a_at) / Fold change /veh FAM211A (11726209_a_at) / RFU RGS16 (11746705_a_at) / Fold change /veh RGS16 (11746705_a_at) / RFU VCAN (11755009_s_at) / Fold change /veh VCAN (11755009_s_at) / RFU RHOB (11743442_s_at) / Fold change /veh RHOB (11743442_s_at) / RFU RGS16 (11720943_a_at) / Fold change /veh RGS16 (11720943_a_at) / RFU RGS16 (11720944_at) / Fold change /veh RGS16 (11720944_at) / RFU, VPS4B / Fold change vs veh, VPS4B / RFU, CREB1 / Fold change vs veh, CREB1 / RFU, DNAJC13 / Fold change vs veh, DNAJC13 / RFU, GNAQ / Fold change vs veh, GNAQ / RFU, CDK5R1 / Fold change vs veh, CDK5R1 / RFU, ZRANB3 / Fold change vs veh, ZRANB3 / RFU, CUL4A / Fold change vs veh, CUL4A / RFU, CCNY / Fold change vs veh, CCNY / RFU, UFL1 / Fold change vs veh, UFL1 / RFU, COG3 / Fold change vs veh, COG3 / RFU, DIAPH2 / Fold change vs veh, DIAPH2 / RFU, SKA2 / Fold change vs veh, SKA2 / RFU, AFF3 / Fold change vs veh, AFF3 / RFU, LMF1 / Fold change vs veh, LMF1 / RFU, IPO11 / Fold change vs veh, IPO11 / RFU, DFFB / Fold change vs veh, DFFB / RFU, FOXP1 / Fold change vs veh, FOXP1 / RFU, CARD8 / Fold change vs veh, CARD8 / RFU, STRN3 / Fold change vs veh, STRN3 / RFU, ADK / Fold change vs veh, ADK / RFU, RASSF2 / Fold change vs veh, RASSF2 / RFU, WIPF1 / Fold change vs veh, WIPF1 / RFU, LARP1B / Fold change vs veh, LARP1B / RFU, RASA1 / Fold change vs veh, RASA1 / RFU, RB1 / Fold change vs veh, RB1 / RFU, PPFIA1 / Fold change vs veh, PPFIA1 / RFU, MAT2A / Fold change vs veh, MAT2A / RFU, CCT5 / Fold change vs veh, CCT5 / RFU, WDR92 / Fold change vs veh, WDR92 / RFU, CUX1 / Fold change vs veh, CUX1 / RFU, TTC7A / Fold change vs veh, TTC7A / RFU, TMEM135 / Fold change vs veh, TMEM135 / RFU, DEPTOR / Fold change vs veh, DEPTOR / RFU, CPM / Fold change vs veh, CPM / RFU, DNAJB6 / Fold change vs veh, DNAJB6 / RFU, CACNA2D3 / Fold change vs veh, CACNA2D3 / RFU, DTX4 / Fold change vs veh, DTX4 / RFU, TFCP2 / Fold change vs veh, TFCP2 / RFU, GMCL1 /// GMCL1P1 / Fold change vs veh, GMCL1 /// GMCL1P1 / RFU, AEBP2 / Fold change vs veh, AEBP2 / RFU, SNHG1 /// SNORD22 /// SNORD25 /// SNORD26 /// SNORD27 /// SNORD28 /// SNORD29 /// SNORD31 / Fold change vs veh, SNHG1 /// SNORD22 /// SNORD25 /// SNORD26 /// SNORD27 /// SNORD28 /// SNORD29 /// SNORD31 / Fold change (Aza/veh), C12orf56 (ProbeSet 11735607_a_at) / Fold change (ACY-1035/veh), C12orf56 (ProbeSet 11735607_a_at) / Fold change (Aza/veh), FGFR1OP (ProbeSet 11751329_s_at) / Fold change (ACY-1035/veh), FGFR1OP (ProbeSet 11751329_s_at) / Fold change (Aza/veh), VPS36 (ProbeSet 11739960_a_at) / Fold change (ACY-1035/veh), VPS36 (ProbeSet 11739960_a_at) / RFU SYPL1 (11715823_x_at) / Fold change /veh SYPL1 (11715823_x_at) / RFU IGFBP7 (11715501_s_at) / Fold change /veh IGFBP7 (11715501_s_at) / RFU REEP3 (11722064_at) / Fold change /veh REEP3 (11722064_at) / RFU IGLL1 (11728026_x_at) / Fold change /veh IGLL1 (11728026_x_at): dose or concentration left out as unconfirmed
Conditions: MV-4-11 cells, 48 hours

Compound: Nc1ccc(-c2cccs2)cc1NC(=O)c1ccc2c(c1)cc(C1CC1)n2CCN1CCOCC1 [ACY-1035]
- RFU CYB561 (11721691_x_at): 11.94 RFU
